Experimental data as given in patent publication US20240400555A1 (Initial Therapeutics, Inc., priority 2023, published 2024).
Blank lines part the entries; values can stand above or below the molecule they belong to.

Tests used:
murine models of MM = details: three murine models; cited from earlier work
[1] = system: prostate cancer cell lines PC-3 and 22 Rv1; details: cited from earlier work
[2] = system: NB4 cells and Nalm-6 cells; details: APL-derived NB4 cells and ALL-derived Nalm-6 cells; cited from earlier work
[3] = system: human lung cancer cell lines (H23 and H292); details: cited from earlier work
c-MYC [4] = assay: In Vitro Translation Dose-Response Curves (In Vitro Multiple Point Translation Screening Assay); assay type: biochemical; details: IVT dose response curve
Protocol: HeLa S3 cell Preparation. HeLa S3 cells were grown essentially as described in Mikami 2010. Frozen aliquots of banked HeLa cells (ATCC #CCL-2.2) were thawed and diluted into agitated suspension culture in CD293 medium supplemented with 10% HI FBS, 1× GlutaMAX, and 1× Pen/Strep. Cells were expanded in suspension over 10 passages to inoculate 3×20 L wave bag bioreactors and cultured for approximately 48 h to a final density of 1.81×10^6 viable cells per mL. Cells were pelleted by centrifugation at 2500 RCF for 15 min at 4° C. Two 1 L pellets were combined in 32 sets and re-pelleted in 50 ml conical tubes, resulting in 32×10 mL cell pellets weighing approximately 10 g each. Final pellets were snap frozen in liquid nitrogen and stored at −80° C. (cell culture, harvesting, and cryo-preservation completed at LakePharma). Cell pellets were subsequently thawed at RT, resuspended in 15 mL wash buffer (35 mM HEPES-KOH, pH 7.5, 140 mM NaCl, and 11 mM glucose), then re-pelleted by centrifugation at 2500 RCF for 10 min at 4° C. The supernatant was discarded and the wash step repeated 2×. The pellets were resuspended each pellet in 10 mL in hypertonic extraction buffer (20 mM HEPES-KOH, pH 7.5, 45 mM potassium acetate, 45 mM KCl, 1.8 mM magnesium acetate, and 1 mM TCEP added directly before use). The cell suspension was transferred to a cell disruption vessel (Parr Instrument Company, model 4636, 1850 mL capacity) and incubated for 15 min on ice, then sealed under nitrogen (200 PSI) for 1.5 h. The cell homogenates were released through a needle valve and collected on ice, then diluted with 1/29 volume high potassium buffer (20 mM HEPES-KOH, pH 7.5, 945 mM potassium acetate, 945 mM KCl, 1.8 mM magnesium acetate, and 1 mM TCEP). The cell homogenates were then clarified by centrifugation at 2500 RCF for 10 min at 4° C. and the supernatant collected. The clarification step was repeated 3×. The resulting cell extracts (675 mL, 2.5 mg/mL total protein) were aliquoted and flash frozen in liquid nitrogen and stored at −80° C. until use.
Translation reactions were incubated for 20 min at 30° C. Nanoluciferase luminescence was measured by combining 2 μL of IVT reaction with 20 μL of prepared reagent from the Nanoglo assay kit (Promega). A negative control of 0.5% DMSO and positive control of 50 μM puromycin were used to define to assay window.
Dose response curve IVTs were performed similar to the single point IVT screening with the following changes. The desired concentration curves were plated into 384 well plates from DMSO stocks using a Tecan D300e dispenser. […] After reaction incubation and luminescence measurement, dose-response curves were fit to the data using Prism (Graphpad) or Collaborative Drug Discovery analysis programs.

c-MYC [5] = assay: Cellular c-MYC Alpha Screen; assay type: cell-based; details: Homo sapiens; c-MYC alpha screen dose response, HCT-116 reporter cells, 24 h; read-out: Geomean pIC50 (converted)
Protocol: HCT-116 Firefly-luciferase reporter cells (BPS bioscience) were seeded in 96-well tissue-culture treated sterile plates (Greiner Bio-One) at 7.5e4 cells/mL in 100 μL complete growth media (McCoy's 5A+10% FBS, +1% Pen-Strep, +1% G418). Cells were incubated at 37° C. with 5% CO2 for 24 h then treated with 3× compound solution in 50 μL complete growth media for a final volume of 150 μL per well with 0.2% DMSO. After 24 h incubation at 37° C. with 5% CO2, plates were allowed to equilibrate to RT for 20 min; the media was then aspirated, and the plate washed once with 200 μL 1×PBS. Cells were then lysed by addition of 1× Alpha Screen lysis buffer (50 μL) from the Perkin Elmer alpha Screen c-MYC detection kit (Part number 6760611C). The lysate is then transferred to ice and advanced to the Alpha Screen detection assay or sealed with adhesive foil and stored at −80° C. for up to 2 weeks before use.
The alpha screen detection assay was then performed as per the vendors instructions. Briefly the acceptor bead mix was prepared as per vendors instructions. 30 ul of the cell lysate is transferred to a 96-well white assay plate. 15 ul of the acceptor mix was added to each well and incubated in the dark for at least one hour. Then the donor bead mix was prepared as per vendors instructions and 15 ul of this was added to the assay plate. The plate was then incubated at RT for one hour in the dark. The plate was then read in the SpectraMax i3x plate reader (Molecular Devices) using the alpha screen module (excitation wavelength 680 emission wavelength 615) and analyzed using GraphPad Prism 9 software.

MM cell = details: in vitro; cited from earlier work
xenografts of human MM = details: in vivo; cited from earlier work
tumor growth = details: mice; cited from earlier work
[6] = system: HCT-116 Firefly-luciferase reporter cells; assay: Cellular c-MYC Reporter Assay; assay type: cell-based; details: Homo sapiens, HCT-116 Firefly-luciferase reporter cells, 24 h; for EC50: HCT-116, 24 h, read-out: Geomean pEC50 (converted); for IC50: untitled table following Table 8a, read-out: pIC50 (converted)
How it was run: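 Compound exposure lasted 24 h at 37 °C, 5% CO2, in complete McCoy's 5A medium containing 0.2% DMSO, beginning 4–6 h post-seeding (5e4 cells/mL). Firefly luciferase signal measured by luminescence after 10 min ONE-Glo development at room temperature.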

Geomean pIC50 (c-MYC [4]): 4.70 (n = 2)
Structure (SMILES): Cc1cccc2ccnc(N(C(=O)c3ccc(-n4ccnn4)cc3)[C@@H]3CCCNC3)c12 [Example 54, (R)-N-(8-methylisoquinolin-1-yl)-N-(piperidin-3-yl)-4-(1H-1,2,3-triazol-1-yl)benzamide]

Geomean pIC50 (c-MYC [4]): 4.6 (n = 2)
EC50 [6]: 0.257 µM
Structure (SMILES): Cc1cccc2ccnc(N(C(=O)c3ccc(-n4c(C)nc5ccccc54)cc3)[C@@H]3CCCNC3)c12 [Example 57, (R)-4-(2-methyl-1H-benzo[d]imidazol-1-yl)-N-(8-methylisoquinolin-1-yl)-N-(piperidin-3-yl)benzamide]

IC50 (c-MYC [5]): 0.398 µM
IC50 [6]: 0.525 µM
Structure (SMILES): Cc1cc(C2CCN(C(=O)N(c3nccc4cccc(C)c34)[C@@H]3CCCNC3)CC2)on1 [Example 243, (R)—N-(8-methylisoquinolin-1-yl)-4-(3-methylisoxazol-5-yl)-N-(piperidin-3-yl)piperidine-1-carboxamide]

IC50 [6]: 0.708 µM
Structure (SMILES): Cc1cccc2ccnc(N(C(=O)c3ccc(-c4cccnc4)cc3)[C@@H]3CCCNC3)c12 [Example 233, (R)—N-(8-methylisoquinolin-1-yl)-N-(piperidin-3-yl)-4-(pyridin-3-yl)benzamide]

IC50 [6]: 0.692 µM
Structure (SMILES): O=C(c1ccc(-n2nnc3cccnc32)cc1F)N(c1nccc2sc(/C=C/CO)cc12)[C@@H]1CCCNC1 [Example 158, (R,E)-4-(3H-[1,2,3]triazolo[4,5-b]pyridin-3-yl)-2-fluoro-N-(2-(3-hydroxyprop-1-en-1-yl)thieno[3,2-c]pyridin-4-yl)-N-(piperidin-3-yl)benzamide]

IC50 [6]: 5.75 µM
Structure (SMILES): Cc1cccc2ccnc(N(C(=O)N3CCC4(CC3)OCCc3ccsc34)[C@@H]3CCCNC3)c12 [Example 265, (R)—N-(8-methylisoquinolin-1-yl)-N-(piperidin-3-yl)-4′,5′-dihydrospiro[piperidine-4,7′-thieno[2,3-c]pyran]-1-carboxamide]

IC50 [6]: 0.2 µM
Structure (SMILES): Cc1cnc(Nc2ccc(C(=O)N(c3nccc4cccc(C)c34)[C@@H]3CCCNC3)c(F)c2)nc1 [Example 186, (R)-2-fluoro-N-(8-methylisoquinolin-1-yl)-4-((5-methylpyrimidin-2-yl)amino)-N-(piperidin-3-yl)benzamide]

Second part, the molecule before the results:

Structure (SMILES): Cc1sc2c(c1C)C(c1ccc(Cl)cc1)=N[C@@H](CC(=O)OC(C)(C)C)c1nnc(C)n1-2 [JQ1]
efficacy in murine models of MM (murine models of MM): efficacious in three murine models of MM

Structure (SMILES): C=CCc1ccc(O)c(-c2ccc(O)c(CC=C)c2)c1 [Honokiol]
anti-cancer activity against prostate cancer cell lines [1]: significant anti-cancer activity
levels of total and/or phosphorylated c-MYC protein and its mRNA expression [1]: marked decrease

Structure (SMILES): CCc1ccc(/C=C2/SC(=S)NC2=O)cc1 [Compound 10058-F4]
viability of leukemia cells [2]: reduced viability

Structure (SMILES): CCc1ccc(O)c(CN(C)Cc2cc(CC)ccc2O)c1 [EMD, N, N-bis(5-ethyl-2-hydroxybenzyl) methylamine]
cytotoxicity toward human lung cancer cell lines [3]: strong cytotoxicity

Structure (SMILES): Cc1cccc2ccnc(N(C(=O)c3ccc(-n4nnc5cccnc54)cc3)[C@@H]3CCCNC3)c12 [Example 50, (R)-4-(3H-[1,2,3]triazolo[4,5-b]pyridin-3-yl)-N-(8-methylisoquinolin-1-yl)-N-(piperidin-3-yl)benzamide]
Geomean pIC50 (c-MYC [4]): 6.0 (n = 4)
IC50 (c-MYC [5]): 0.158 µM

Structure (SMILES): O=C(c1cc(Cc2n[nH]c(=O)c3ccccc23)ccc1F)N1CCN(C(=O)C2CC2)CC1 [olaparib]
MM cell viability (MM cell): impaired MM cell viability in vitro
efficacy against xenografts of human MM (xenografts of human MM): effective against in vivo xenografts of human MM

Structure (SMILES): Cn1nc(C(F)(F)F)cc1-c1ccc(OCc2ccc(Cl)cc2)c(-c2cc(C(F)(F)F)cc(C(F)(F)F)c2)c1O [MYCi361]
in vivo tumor growth (tumor growth): suppressed in vivo tumor growth in mice

Structure (SMILES): Cc1cccc2ccnc(N(C(=O)c3ccc(Nc4ncccn4)cc3)[C@@H]3CCCNC3)c12 [Example 51, (R)-N-(8-methylisoquinolin-1-yl)-N-(piperidin-3-yl)-4-(pyrimidin-2-ylamino)benzamide]
Geomean pIC50 (c-MYC [4]): 4.8 (n = 2)
IC50 (c-MYC [5]): 1 µM
EC50 [6]: 0.251 µM
